The values below come from PubChem BioAssay AID270 (DTP/NCI, 2004).

The test relates to BDF1 mice, s.c. Lewis lung carcinoma, T/C %. Put plainly: NCI In Vivo Anticancer Drug Screen. Data for tumor model Lewis Lung Carcinoma (subcutaneous) in B6D2F1 (BDF1) mice. The gist of the method:
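Transplanted tumors grown in mice; compound vs vehicle dosing; endpoint survival or tumor size; ratio T/C.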

Where [1] appears, read: endpoint: median survival time, dose: 0.1 mg/kg/injection, schedule: Q01DX009 (ip), vehicle: saline, higher = longer survival.
Setting [2] is: endpoint: median survival time, dose: 0.2 mg/kg/injection, schedule: Q01DX009 (ip), vehicle: saline, higher = longer survival.
[3] abbreviates: endpoint: median survival time, dose: 0.4 mg/kg/injection, schedule: Q01DX009 (ip), vehicle: saline, higher = longer survival.

“And” between values parts separate entries of the source, which are not always exact repeats. Equal values may be shown once. Inconclusive results are not listed.

As to `Nc1nc(=S)c2[nH]cnc2[nH]1`, the T/C is, setting by setting: (endpoint: median survival time, dose: 0.5 mg/kg/injection, schedule: Q01DX009 (ip), vehicle: Klucel (hydroxypropylcellulose) (HPC), higher = longer survival) 108 % of control; (endpoint: median survival time, dose: 1.0 mg/kg/injection, schedule: Q01DX009 (ip), vehicle: Klucel (hydroxypropylcellulose) (HPC), higher = longer survival) 117 % of control; (endpoint: median tumor weight (est.), dose: 0.67 mg/kg/injection, schedule: Q01DX011 (ip), vehicle: alkali diluted with saline, higher = larger tumour) 80 % of control; (endpoint: median tumor weight (est.), dose: 1.0 mg/kg/injection, schedule: Q01DX011 (ip), vehicle: alkali diluted with saline, higher = larger tumour) 24 % of control.
`C=C(C)C12OC3(c4ccccc4)OC1C1C4OC4(CO)C(O)C4(O)C(=O)C(C)=CC4C1(O3)C(C)C2OC(=O)c1ccccc1` (configuration not stated): the T/C reads like this: under setting [1], 100 % of control; under setting [2], 100 % of control; under setting [3], 100 % of control; (endpoint: median survival time, dose: 0.8 mg/kg/injection, schedule: Q01DX009 (ip), vehicle: saline, higher = longer survival) 94 % of control.
`CCOP(=O)(N1CC1(C)C)N1CC1(C)C` (configuration not stated): the T/C (endpoint: median survival time, dose: 5.0 mg/kg/injection, schedule: Q01DX009 (ip), vehicle: saline, higher = longer survival) is 94 % of control; the T/C (endpoint: median survival time, dose: 10.0 mg/kg/injection, schedule: Q01DX009 (ip), vehicle: saline, higher = longer survival) was 101 % of control; the T/C (endpoint: median survival time, dose: 20.0 mg/kg/injection, schedule: Q01DX009 (ip), vehicle: saline, higher = longer survival) was 94 % of control; the T/C (endpoint: median survival time, dose: 30.0 mg/kg/injection, schedule: Q01DX009 (ip), vehicle: saline, higher = longer survival) was 101 % of control; the T/C (endpoint: median survival time, dose: 50.0 mg/kg/injection, schedule: Q01DX009 (ip), vehicle: saline, higher = longer survival) is 90 % of control; the T/C (endpoint: median survival time, dose: 80.0 mg/kg/injection, schedule: Q01DX009 (ip), vehicle: saline, higher = longer survival) was 99 % of control.
Regarding `OC(CBr)C(O)C(O)C(O)CBr` (configuration not stated), the T/C is, setting by setting: (endpoint: mean tumor weight (est.), dose: 75.0 mg/kg/injection, schedule: Q01DX009 (ip), vehicle: Klucel (hydroxypropylcellulose) (HPC), higher = larger tumour) 107 % of control; (endpoint: mean tumor weight (est.), dose: 150.0 mg/kg/injection, schedule: Q01DX009 (ip), vehicle: Klucel (hydroxypropylcellulose) (HPC), higher = larger tumour) 92 % of control; (endpoint: mean tumor weight (est.), dose: 300.0 mg/kg/injection, schedule: Q01DX009 (ip), vehicle: Klucel (hydroxypropylcellulose) (HPC), higher = larger tumour) 63 % of control; (endpoint: mean tumor weight, dose: 25.0 mg/kg/injection, schedule: Q01DX011 (ip), vehicle: saline, higher = larger tumour) 103 % of control; (endpoint: mean tumor weight, dose: 50.0 mg/kg/injection, schedule: Q01DX011 (ip), vehicle: saline, higher = larger tumour) 82 % of control; (endpoint: mean tumor weight, dose: 100.0 mg/kg/injection, schedule: Q01DX011 (ip), vehicle: saline, higher = larger tumour) 46 % of control and 51 % of control. Also, the T/C by setting is: (endpoint: mean tumor weight, dose: 400.0 mg/kg/injection, schedule: Q01DX011 (ip), vehicle: saline, higher = larger tumour) 118 % of control; (endpoint: median survival time, dose: 100.0 mg/kg/injection, schedule: Q01DX009 (ip), vehicle: saline, higher = longer survival) 107 % of control; (endpoint: median survival time, dose: 150.0 mg/kg/injection, schedule: Q01DX009 (ip), vehicle: Klucel (hydroxypropylcellulose) (HPC), higher = longer survival) 113 % of control; (endpoint: median survival time, dose: 200.0 mg/kg/injection, schedule: Q01DX009 (ip), vehicle: saline, higher = longer survival) 102 % of control; (endpoint: median survival time, dose: 400.0 mg/kg/injection, schedule: Q01DX009 (ip), vehicle: saline, higher = longer survival) 107 % of control.
Regarding `CN(C)C=Nc1ccc2c3c(cccc13)CC2`, the T/C is 108 % of control (endpoint: median survival time, dose: 6.25 mg/kg/injection, schedule: Q01DX009 (ip), vehicle: Klucel (hydroxypropylcellulose) (HPC), higher = longer survival); 107 % of control (endpoint: median survival time, dose: 12.5 mg/kg/injection, schedule: Q01DX009 (ip), vehicle: Klucel (hydroxypropylcellulose) (HPC), higher = longer survival); 122 % of control (endpoint: median survival time, dose: 25.0 mg/kg/injection, schedule: Q01DX009 (ip), vehicle: Klucel (hydroxypropylcellulose) (HPC), higher = longer survival).
Regarding `CNC1=C(N2CC2)C(=O)C(NC)=C(N2CC2)C1=O`, the T/C by setting is: (endpoint: median survival time, dose: 0.02 mg/kg/injection, schedule: Q01DX009 (ip), vehicle: saline, higher = longer survival) 120 % of control; under setting [1], 113 % of control; under setting [2], 105 % of control; under setting [3], 124 % of control.
`CC(=O)Oc1ccc(OC(C)=O)c2c1C(=O)C=CC2=O`: the T/C is 107 % of control (endpoint: median survival time, dose: 0.38 mg/kg/injection, schedule: Q01DX009 (ip), vehicle: Klucel (hydroxypropylcellulose) (HPC), higher = longer survival); 96 % of control (endpoint: median survival time, dose: 0.75 mg/kg/injection, schedule: Q01DX009 (ip), vehicle: Klucel (hydroxypropylcellulose) (HPC), higher = longer survival); 100 % of control (endpoint: median survival time, dose: 1.5 mg/kg/injection, schedule: Q01DX009 (ip), vehicle: Klucel (hydroxypropylcellulose) (HPC), higher = longer survival); 113 % of control (endpoint: median survival time, dose: 3.0 mg/kg/injection, schedule: Q01DX009 (ip), vehicle: Klucel (hydroxypropylcellulose) (HPC), higher = longer survival); 111 % of control (endpoint: median survival time, dose: 3.12 mg/kg/injection, schedule: Q01DX009 (ip), vehicle: Klucel (hydroxypropylcellulose) (HPC), higher = longer survival).
